This is an account of results in patent US12150940B2, “WASp-protecting small molecules, compositions, methods and uses thereof in the treatment of innate and acquired immune-related disorders or conditions” (BAR ILAN UNIVERSITY, priority 2016, dated 2024).

Peptide text beside a SMILES is read from it. * marks the point of attachment. Cbz = O=C(OCc1ccccc1)*

The test system of the assay is WASp. The assay can be described thus: WASp ubiquitylation in Meg-01 cells (immunoprecipitation, anti-ubiquitin blot). The assay is classed as cell-based, human. The settings on record: Meg-01 cells after activation, treated vs untreated. How it is done:
Freshly-isolated platelets were stimulated with 10 μM of TRAP-6 for the indicated time points, followed by lysis. WIP (FIG. 7A) or WASp (FIG. 7B) were immunoprecipitated from the lysates and analyzed by western blot for co-immunoprecipitation, using anti-WASp, anti-WIP or anti-PKCθ antibodies. WASp immunoprecipitates were immunoblotted for WASp ubiquitylation using anti-ubiquitin (Ub) antibody (FIG. 7C). Ubiquitylated WASp appears as a smear of bands above the MW of 65 kDa with a prominent band at ˜81 kDa. […] Blots are representative of three independent experiments. Meg-01 megakaryocyte cell line was activated in the presence (+) or absence (−) of MG132, followed by lysis (FIG. 7E). WASp ubiquitylation was determined by co-immunoprecipitation analysis as in FIG. 7C. […] PKCθ and WASp protein expression levels were analyzed by western blot with anti-PKCθ and anti-WASp antibodies, and with anti-GAPDH as loading control. Relative protein expression was determined by densitometric analysis and is presented below the corresponding lanes. […]
Insufficient WASp expression in platelets and megakaryocytes is the cause of microthrombocytopenia of WAS/XLT patients (Albert et al 2010, Lutskiy et al, 2007). […] Similarly, reciprocal co-precipitation was detected between WASp and WIP during the first two minutes of activation when WASp was immunoprecipitated (FIG. 7B). […]

`CC(C)C[C@@H](C=O)NC(=O)[C@H](CC(C)C)NC(=O)[C@H](CC(C)C)NC(=O)OCc1ccccc1` [MG132] (Cbz-Leu-Leu-Leu-aldehyde): the WASp ubiquitylation entry is listed as “more intense”.
